Converted amounts (≈) assume the structure as drawn. Where only a bound is given, the exact number is not on record here.

What all share (type): cell-based
One test has as its system K. pneumoniae MP-648. The test is described as follows: Broth dilution MIC determination (CLSI), K. pneumoniae MP-648. The note with it: Klebsiella pneumoniae, MP648; strain MP-648, broth dilution. In general terms: In broth dilution the organism is exposed to a series of concentrations in liquid medium.
The test system of the next test is S. aureus MP-12. The test can be described thus: Broth dilution MIC determination (CLSI), S. aureus MP-12. The note with it: Staphylococcus aureus, MP12; strain MP-12, broth dilution.
A further test concerns E. coli MP-4. The test can be described thus: Broth dilution MIC determination (CLSI), E. coli MP-4. The note with it: Escherichia coli, MP4; strain MP-4, broth dilution; read-out: MIC E. coli MP-4.
The next test has as its system K. pneumoniae MP-546. The test can be described thus: Broth dilution MIC determination (CLSI), K. pneumoniae MP-546. The settings on record: Klebsiella pneumoniae, MP546; strain MP-546, broth dilution.
The subject of the next test is P. aeruginosa MP-3. The test can be described thus: Broth dilution MIC determination (CLSI), P. aeruginosa MP-3. The note with it: Pseudomonas aeruginosa, MP3; strain MP-3, broth dilution.
In the next test the test system is A. baumannii MP-15. The test is described as follows: Broth dilution MIC determination (CLSI), A. baumannii MP-15. The note with it: Acinetobacter baumannii, MP15; strain MP-15, broth dilution; read-out: MIC A. baumanii MP-15.

What is called MIC is the least concentration at which growth counts as inhibited. In the case of `CCCN1CC([C@@H]2[C@@H](C)OC(=O)C(C)(C)C(=O)[C@H](C)[C@@H](O[C@@H]3O[C@H](C)C[C@H](N(C)C)[C@H]3O)[C@](C)(OC)C[C@@H](C)CN2C)C1` [Compound 136, (2R,3R,6R,8R,9R,10R)-9-(((2S,3R,4S,6R)-4-(dimethylamino)-3-hydroxy-6-methyltetrahydro-2H-pyran-2-yl)oxy)-8-methoxy-2,4,6,8,10,12,12-heptamethyl-3-(1-propylazetidin-3-yl)-1-oxa-4-azacyclotridecane-11,13-dione], the MIC against K. pneumoniae MP-648 is greater than 32 µg/mL; against S. aureus MP-12 it was greater than 32 µg/mL; in the test on E. coli MP-4 it was 4 to 32 µg/mL (≈ 6.54 to 52.3 µM); in the test with K. pneumoniae MP-546 it was greater than 32 µg/mL; against P. aeruginosa MP-3, greater than 32 µg/mL; in the test with A. baumannii MP-15 it was greater than 32 µg/mL.
On to `CO[C@]1(C)C[C@@H](C)CN(C)[C@H](C2CN(C(=O)CN3CCCC3)C2)COC(=O)C(C)(C)C(=O)[C@H](C)[C@H]1O[C@@H]1O[C@H](C)C[C@H](N(C)C)[C@H]1O` [Compound 138, (3R,6R,8R,9R,10R)-9-(((2S,3R,4S,6R)-4-(dimethylamino)-3-hydroxy-6-methyltetrahydro-2H-pyran-2-yl)oxy)-8-methoxy-4,6,8,10,12,12-hexamethyl-3-(1-(2-(pyrrolidin-1-yl)acetyl)azetidin-3-yl)-1-oxa-4-azacyclotridecane-11,13-dione], for which the MIC is 4 to 32 µg/mL (≈ 6 to 48 µM) against K. pneumoniae MP-648; 4 to 32 µg/mL (≈ 6 to 48 µM) against S. aureus MP-12; less than 4 µg/mL in the test with E. coli MP-4; less than 4 µg/mL against K. pneumoniae MP-546; greater than 32 µg/mL in the test with P. aeruginosa MP-3; greater than 32 µg/mL in the test on A. baumannii MP-15.
Regarding `CO[C@]1(C)C[C@@H](C)CN(C)[C@H](C2CN(C(=O)CCCN(C)C)C2)COC(=O)C(C)(C)C(=O)[C@H](C)[C@H]1O[C@@H]1O[C@H](C)C[C@H](N(C)C)[C@H]1O` [Compound 139, (3R,6R,8R,9R,10R)-9-(((2S,3R,4S,6R)-4-(dimethylamino)-3-hydroxy-6-methyltetrahydro-2H-pyran-2-yl)oxy)-3-(1-(4-(dimethylamino)butanoyl)azetidin-3-yl)-8-methoxy-4,6,8,10,12,12-hexamethyl-1-oxa-4-azacyclotridecane-11,13-dione], the MIC is greater than 32 µg/mL in the test with K. pneumoniae MP-648; greater than 32 µg/mL against S. aureus MP-12; 4 to 32 µg/mL (≈ 5.98 to 47.8 µM) in the test with E. coli MP-4; greater than 32 µg/mL in the test with K. pneumoniae MP-546; greater than 32 µg/mL in the test with P. aeruginosa MP-3; greater than 32 µg/mL in the test on A. baumannii MP-15.
As to `CCCN1CCC([C@]2(C)COC(=O)C(C)(C)C(=O)[C@H](C)[C@@H](O[C@@H]3O[C@H](C)C[C@H](N(C)C)[C@H]3O)[C@](C)(OC)C[C@@H](C)CN2C)CC1` [Compound 143, (3R,6R,8R,9R,10R)-9-(((2S,3R,4S,6R)-4-(dimethylamino)-3-hydroxy-6-methyltetrahydro-2H-pyran-2-yl)oxy)-8-methoxy-3,4,6,8,10,12,12-heptamethyl-3-(1-propylpiperidin-4-yl)-1-oxa-4-azacyclotridecane-11,13-dione], the MIC was less than 4 µg/mL against K. pneumoniae MP-648; greater than 32 µg/mL against S. aureus MP-12; less than 4 µg/mL in the test with E. coli MP-4; less than 4 µg/mL in the test with K. pneumoniae MP-546; greater than 32 µg/mL in the test on P. aeruginosa MP-3; greater than 32 µg/mL in the test with A. baumannii MP-15.
In the case of `CO[C@]1(C)C[C@@H](C)CN(C)[C@H](C2CN(C(=O)CCN(C)CC3CC3)C2)COC(=O)C(C)(C)C(=O)[C@H](C)[C@H]1O[C@@H]1O[C@H](C)C[C@H](N(C)C)[C@H]1O` [Compound 144, (3R,6R,8R,9R,10R)-3-(1-(3-((cyclopropylmethyl)(methyl)amino)propanoyl)azetidin-3-yl)-9-(((2S,3R,4S,6R)-4-(dimethylamino)-3-hydroxy-6-methyltetrahydro-2H-pyran-2-yl)oxy)-8-methoxy-4,6,8,10,12,12-hexamethyl-1-oxa-4-azacyclotridecane-11,13-dione], the MIC against K. pneumoniae MP-648 was greater than 32 µg/mL; against S. aureus MP-12, greater than 32 µg/mL; with E. coli MP-4, less than 4 µg/mL; against K. pneumoniae MP-546, 4 to 32 µg/mL (≈ 5.76 to 46 µM); in the test on P. aeruginosa MP-3, greater than 32 µg/mL; with A. baumannii MP-15, greater than 32 µg/mL.
For the molecule `CO[C@]1(C)C[C@@H](C)CN(C)[C@H](C2CN(C(=O)[C@@H]3CCN(CC4CC4)C3)C2)COC(=O)C(C)(C)C(=O)[C@H](C)[C@H]1O[C@@H]1O[C@H](C)C[C@H](N(C)C)[C@H]1O` [Compound 145, (3R,6R,8R,9R,10R)-3-(1-((R)-1-(cyclopropylmethyl)pyrrolidine-3-carbonyl)azetidin-3-yl)-9-(((2S,3R,4S,6R)-4-(dimethylamino)-3-hydroxy-6-methyltetrahydro-2H-pyran-2-yl)oxy)-8-methoxy-4,6,8,10,12,12-hexamethyl-1-oxa-4-azacyclotridecane-11,13-dione], the MIC was 4 to 32 µg/mL (≈ 5.66 to 45.3 µM) against K. pneumoniae MP-648; greater than 32 µg/mL with S. aureus MP-12; less than 4 µg/mL in the test with E. coli MP-4; 4 to 32 µg/mL (≈ 5.66 to 45.3 µM) against K. pneumoniae MP-546; greater than 32 µg/mL in the test with P. aeruginosa MP-3; greater than 32 µg/mL in the test on A. baumannii MP-15.
In the case of `CO[C@]1(C)C[C@@H](C)CN(C)[C@H](C2CN(CC3CC3)C2)[C@@H](C)OC(=O)C(C)(C)C(=O)[C@H](C)[C@H]1O[C@@H]1O[C@H](C)C[C@H](N(C)C)[C@H]1O` [Compound 146, (2R,3R,6R,8R,9R,10R)-3-(1-(cyclopropylmethyl)azetidin-3-yl)-9-(((2S,3R,4S,6R)-4-(dimethylamino)-3-hydroxy-6-methyltetrahydro-2H-pyran-2-yl)oxy)-8-methoxy-2,4,6,8,10,12,12-heptamethyl-1-oxa-4-azacyclotridecane-11,13-dione], the MIC against K. pneumoniae MP-648 is greater than 32 µg/mL; against S. aureus MP-12, greater than 32 µg/mL; in the test with E. coli MP-4, 4 to 32 µg/mL (≈ 6.41 to 51.3 µM); against K. pneumoniae MP-546 it was greater than 32 µg/mL; in the test with P. aeruginosa MP-3 it was greater than 32 µg/mL; with A. baumannii MP-15 it was greater than 32 µg/mL.
As to `CO[C@]1(C)C[C@@H](C)CN(C)[C@H](C2CCN(C(C)C)CC2)COC(=O)C(C)(C)C(=O)[C@H](C)[C@H]1O[C@@H]1O[C@H](C)C[C@H](N(C)C)[C@H]1O` [Compound 151], the MIC in the test on K. pneumoniae MP-648 is less than 4 µg/mL; in the test on S. aureus MP-12 it was greater than 32 µg/mL; in the test with E. coli MP-4 it was less than 4 µg/mL; against K. pneumoniae MP-546, less than 4 µg/mL; in the test on P. aeruginosa MP-3 it was greater than 32 µg/mL; with A. baumannii MP-15, greater than 32 µg/mL.
Turning to `CO[C@]1(C)C[C@@H](C)CN(C)[C@H](C2CN(C(=O)CCCN(C)CC3CCC3)C2)COC(=O)C(C)(C)C(=O)[C@H](C)[C@H]1O[C@@H]1O[C@H](C)C[C@H](N(C)C)[C@H]1O` [Compound 156, (3R,6R,8R,9R,10R)-3-(1-(4-((cyclobutylmethyl)(methyl)amino)butanoyl)azetidin-3-yl)-9-(((2S,3R,4S,6R)-4-(dimethylamino)-3-hydroxy-6-methyltetrahydro-2H-pyran-2-yl)oxy)-8-methoxy-4,6,8,10,12,12-hexamethyl-1-oxa-4-azacyclotridecane-11,13-dione], the MIC is 4 to 32 µg/mL (≈ 5.53 to 44.3 µM) in the test with K. pneumoniae MP-648; greater than 32 µg/mL against S. aureus MP-12; less than 4 µg/mL in the test on E. coli MP-4; 4 to 32 µg/mL (≈ 5.53 to 44.3 µM) against K. pneumoniae MP-546; greater than 32 µg/mL with P. aeruginosa MP-3; greater than 32 µg/mL in the test on A. baumannii MP-15.
Turning to `CO[C@]1(C)C[C@@H](C)CN(C)[C@](C)(C2CCN(C(C)C)CC2)COC(=O)C(C)(C)C(=O)[C@H](C)[C@H]1O[C@@H]1O[C@H](C)C[C@H](N(C)C)[C@H]1O` [Compound 158, (3R,6R,8R,9R,10R)-9-(((2S,3R,4S,6R)-4-(dimethylamino)-3-hydroxy-6-methyltetrahydro-2H-pyran-2-yl)oxy)-3-(1-isopropylpiperidin-4-yl)-8-methoxy-3,4,6,8,10,12,12-heptamethyl-1-oxa-4-azacyclotridecane-11,13-dione], the MIC is less than 4 µg/mL in the test with K. pneumoniae MP-648; 4 to 32 µg/mL (≈ 6.25 to 50 µM) against S. aureus MP-12; less than 4 µg/mL in the test on E. coli MP-4; less than 4 µg/mL against K. pneumoniae MP-546; greater than 32 µg/mL against P. aeruginosa MP-3; greater than 32 µg/mL in the test with A. baumannii MP-15.

The values are drawn from patent US20220177508A1, “C10-Cyclic Substituted 13-Membered Macrolides and Uses Thereof” (Zikani Therapeutics, Inc., priority 2018, published 2022).
